In patent publication US6488164B2, “Compositions including modafinil for treatment of attention deficit hyperactivity disorder and multiple sclerosis fatigue” (Cephalon, Inc., priority 1999, dated 2002):

Key:
MS fatigue = settings: cited from earlier work
wakefulness [1] = settings: rats, cats, canines, non-human primates; also sleep apnea and narcolepsy models; cited from earlier work
wakefulness [2] = settings: cited from earlier work
[3] = system: TMN of the posterior hypothalamus; settings: cats, wake-promoting dose; cited from earlier work
[4] = system: Fos-IR neurons in cingulate cortex, TMN, VTA; test: Fos immunohistochemistry cell counts in rat brain, modafinil given at midnight (Example 1); assay type: in vivo; settings: rats
Experimental: (§1) Experimental Design: In the following examples, rats were sacrificed two hours following treatment, and the brains were analyzed using immunohistochemistry for Fos. In Examples 1 and 2, rats were instrumented for electroencephalogram (EEG) and electromyogram (EMG) recordings. To avoid the stress of handling during administration of modafinil or vehicle, chronic catheters were placed in the peritoneal cavity for administration of modafinil or vehicle.
(§2) Animals and Recording Environment: 65, male, Sprague-Dawley rats (Harlan) weighing 270-330 g were housed individually in a pathogen-free barrier facility in a room maintained at 21.5-22.5° C. with lights on at 7 AM and off at 7 PM. Rats had food and water available ad lib. At least 3 days before each experiment, rats were placed into a light-tight, sound-attenuated recording chamber (Biocube) in an isolated room. Light intensity was 100-150 lux at midlevel inside each cage. The Institutional Animal Care and Use Committees of Beth Israel Deaconess Medical Center and Harvard Medical School approved all procedures.
(§3) Animal Surgery: Under chloral hydrate anesthesia (350 mg/kg ip), the rats of Examples 1 and 2 were surgically implanted with four EEG screws (AP: +3, −4; RL: +2,−2 from bregma) lightly contacting the dura and two EMG wires (Plastics One, Roanoke, Va.) below the nuchal muscles. The leads were connected to a six channel connector (Plastics One) which was affixed to the skull with dental acrylic. A telemetric temperature transmitter (TA10TA-F40, Data Sciences International, St. Paul, Minn.) was placed in the peritoneal cavity of all but 5 rats. To administer drugs without handling the rats, an 80 cm silastic catheter (1 mm I.D., Baxter Scientific Products) was inserted into the peritoneal cavity, subcutaneously tunneled to the scalp, cemented in place with dental acrylic, and protected externally by a spring. This intraperitoneal catheter was filled with heparinized, pyrogen-free saline and flushed weekly and 3 days prior to the experiment. Animals recovered at least 14 days and then acclimated to recording cables for three days prior to the start of physiological recordings.
(§4) Drug Administration: Modafinil (lot #PA 008; Cephalon, Inc., West Chester, Pa.) was suspended in a solution of 0.25% methylcellulose (pH=7.4, Dow Chemical Inc., Midland, Mich.) in 0.9% pyrogen-free saline. The drug was administered in a volume of 2.0 ml/kg at doses of 150 mg/kg. Control animals received an equal volume of methylcellulose vehicle. Catheters were then flushed with 1 ml 0.9% saline to assure delivery of drug into the peritoneal cavity. A red flashlight was used to aid injections performed in the dark.
(§5) Histology and Immunohistochemistry: Two hours following drug injections, animals were deeply anesthetized with chloral hydrate (600 mg/kg ip) and transcardially perfused with 100 ml 0.9% saline followed by 500 ml of phosphate buffered 10% formalin, pH 7.0 (Sigma). Brains were removed, postfixed for 4 hours in formalin, and then allowed to equilibrate in 20% sucrose in 0.1 M phosphate buffered saline (PBS), with 0.02% sodium azide (Sigma) at 4° C. Brains were sectioned (1:5 series, 30 μm) on a freezing microtome and stored in PBS-azide at 4° C. One series from each brain was stained for Fos using previously described methods (Elmquist et al., 1996). […]

TMN = settings: rats, wake-promoting doses; cited from earlier work
[5] = system: Fos-IR neurons in VLPO, TMN, cortex; test: Fos immunohistochemistry cell counts in rat brain, modafinil given at noon (Example 2); assay type: in vivo
Experimental: as §1, §2, §3, §4, §5

[6] = modafinil 150 mg/kg ip at midnight, 2 h after treatment, mean ± standard error, n=6
[7] = rats on normal LD cycle, 150 mg/kg at noon
[8] = rats, modafinil 150 mg/kg ip at noon, 2 h after treatment, n=7

Q: With NC12CC3CC(CC(C3)C1)C2 [Amantadine, amantadine] as the compound, how does the “Patients with benefit in MS fatigue” value (MS fatigue; double blind, randomized study) read?
A: 79%

Q: With NC(=O)C[S+]([O-])C(c1ccccc1)c1ccccc1 (stereo not drawn) [Modafinil, modafinil] as the compound, how does the “Wakefulness (in words)” value (wakefulness [1]) read?
A: promotes wakefulness

Q: What about the “Tolerability in clinical trials” value (wakefulness [2]; 400 mg/day, humans) of the same compound?
A: well tolerated

Q: What about the “Optimum wakefulness promoting dose” value (wakefulness [2]; adult humans) of the same compound?
A: 200 mg/day

Q: And the “Lower threshold of wake-promoting doses” value (wakefulness [2]; human oral, known in the art)?
A: about 100 mg/day

Q: And the “Activation of the TMN of the posterior hypothalamus (in words)” value [3]?
A: failed to cause activation of the TMN

Q: And the “Fos-IR neurons in TMN relative to controls” value ([4]; 150 mg/kg at midnight)?
A: four times as many

Q: What about the “Fos immunoreactivity in the cortex versus controls” value ([4]; 150 mg/kg at midnight, more pronounced in cingulate and pyriform cortex) of the same compound?
A: more Fos immunoreactivity in the cortex than the controls

Q: And the “Fos-IR cell count, TMN” value [4, 6]?
A: 46 ± 4

Q: And the “Fos-IR cell count, VTA” value [4, 6]?
A: 12 ± 3

Q: What about the “Fos-IR cell count, cingulate cortex” value [4, 6] of the same compound?
A: 191 ± 38

Q: And the “Association of modafinil-induced wakefulness with activation of the TMN (in words)” value (TMN)?
A: not associated with activation of the TMN

Q: And the “Number of Fos-IR neurons in the TMN (in words)” value [5, 7]?
A: markedly increased

Q: And the “Number of Fos-IR neurons in the VLPO (in words)” value [5, 7]?
A: decreases

Q: What about the “Expression of Fos in frontal and cingulate cortex (in words)” value ([5]; rats, 150 mg/kg at noon) of the same compound?
A: increased expression of Fos

Q: What about the “Fos-IR cell count, TMN” value [5, 8] of the same compound?
A: 43 ± 5

Q: And the “Fos-IR cell count, VLPO” value [5, 8]?
A: 26 ± 3

Q: Which “Beneficial effect in MS fatigue (in words)” value (MS fatigue; same study, MS patients) does the source give for NC1=NC(=O)C(c2ccccc2)O1 (stereo not drawn) [pemoline] here?
A: failed to show a beneficial effect
